# From patent publication US10689381B2 (priority 2017, dated 2020)
# Where two headings read alike, the source gives them in different places.
# What was measured:
# HCT116 = assay: cells; type: cell-based, human; conditions: for IC50: read-out: IC50 HCT116; for potency relative to vinblastine (more potent): vinblastine-sensitive cell lines
# Description: (§1) A population of cells (>1×10^6 cells/mL as determined with a hemocytometer) was diluted with Dulbecco's Modified Eagle Medium (DMEM, Gibco) containing 10% fetal bovine serum (FBS, Gibco) to give a final concentration of 30,000 cells/mL. To each well of a 96-well plate (Corning® Costar®) was added 100 μL of the cell media solution with a multichannel pipet.
# (§2) The test compounds were then added to the plate as follows: test compounds were diluted in DMSO to a concentration of 1 mM. 10-Fold serial dilutions in DMSO were next performed on a separate 96-well plate. Fresh culture media (100 μL) was added to each well of cells resulting in 200 μL of medium per well followed by 2 μL of each test agent. Compounds were tested in duplicate (n=2-8 times) at six concentrations between 0-1000 nM or 0-10000 nM. Following the addition of compound, cultures were incubated for an additional 72 hours.
# (§3) The plates were incubated at 37° C. for 5 minutes (L1210) or 15 min (HCT116 and HCT116/VM46).
# L1210 = assay: cells; type: cell-based, mouse
# Description: as §1, §2, §3
smiles,measurement,setting,value
CCC1(NC(=O)c2ccc(SC)cc2)CC2CN(CCc3c([nH]c4ccccc34)C(C(=O)OC)(c3cc4c(cc3OC)N(C)C3C(O)(C(=O)OC)C(OC(C)=O)C5(CC)C=CCN6CCC43C65)C2)C1 (centres unmarked) [Compound 84],IC50,HCT116; Table 2,0.5 nM
same,IC50,L1210; Table 2,0.4 nM
CCC1(NC(=O)c2ccco2)CC2CN(CCc3c([nH]c4ccccc34)C(C(=O)OC)(c3cc4c(cc3OC)N(C)C3C(O)(C(=O)OC)C(OC(C)=O)C5(CC)C=CCN6CCC43C65)C2)C1 (centres unmarked) [Compound 134],IC50,HCT116; Table 5,0.7 nM
same,IC50,L1210; Table 5,0.7 nM
CCC1(NC(=O)c2ccc(Br)c(Br)c2)CC2CN(CCc3c([nH]c4ccccc34)C(C(=O)OC)(c3cc4c(cc3OC)N(C)C3C(O)(C(=O)OC)C(OC(C)=O)C5(CC)C=CCN6CCC43C65)C2)C1 (centres unmarked) [Compound 53],IC50,HCT116; Table 2,40 nM
same,IC50,L1210; Table 2,60 nM
CC[C@]1(NC(=O)C2CCCCC2)C[C@H]2CN(CCc3c([nH]c4ccccc34)[C@@](C(=O)OC)(c3cc4c(cc3OC)N(C)[C@H]3[C@@](O)(C(=O)OC)[C@H](OC(C)=O)[C@]5(CC)C=CCN6CC[C@]43[C@@H]65)C2)C1 [Compound 20],IC50,HCT116; Table 1,70 nM
same,IC50,L1210; Table 1,55 nM
CC[C@]1(NC(=O)C(C)C)C[C@H]2CN(CCc3c([nH]c4ccccc34)[C@@](C(=O)OC)(c3cc4c(cc3OC)N(C)[C@H]3[C@@](O)(C(=O)OC)[C@H](OC(C)=O)[C@]5(CC)C=CCN6CC[C@]43[C@@H]65)C2)C1 [Compound 13],IC50,HCT116; Table 1,90 nM
same,IC50,L1210; Table 1,70 nM
CCC1(NC(=O)c2ccc(CN)cc2)CC2CN(CCc3c([nH]c4ccccc34)C(C(=O)OC)(c3cc4c(cc3OC)N(C)C3C(O)(C(=O)OC)C(OC(C)=O)C5(CC)C=CCN6CCC43C65)C2)C1 (centres unmarked) [Compound 65],IC50,HCT116; Table 2,3.5 nM
same,IC50,L1210; Table 2,25 nM
CC[C@]1(NC(=O)c2ccc(C(C)(C)C)cc2)C[C@H]2CN(CCc3c([nH]c4ccccc34)[C@@](C(=O)OC)(c3cc4c(cc3OC)N(C)[C@H]3[C@@](O)(C(=O)OC)[C@H](OC(C)=O)[C@]5(CC)C=CCN6CC[C@]43[C@@H]65)C2)C1 [Compound 38],IC50,HCT116; Table 2,1.9 nM
same,IC50,L1210; Table 2,0.6 nM
CCC1(NC(=O)c2ccc(OC)c(OC)c2)CC2CN(CCc3c([nH]c4ccccc34)C(C(=O)OC)(c3cc4c(cc3OC)N(C)C3C(O)(C(=O)OC)C(OC(C)=O)C5(CC)C=CCN6CCC43C65)C2)C1 (centres unmarked) [Compound 70],IC50,HCT116; Table 2,0.07 nM
same,IC50,L1210; Table 2,0.06 nM
CCC1(NC(=O)c2nc3ccccc3s2)CC2CN(CCc3c([nH]c4ccccc34)C(C(=O)OC)(c3cc4c(cc3OC)N(C)C3C(O)(C(=O)OC)C(OC(C)=O)C5(CC)C=CCN6CCC43C65)C2)C1 (centres unmarked) [Compound 172],IC50,HCT116; Table 6,80 nM
same,IC50,L1210; Table 6,180 nM
CCC1(NC(=O)C=Cc2cccnc2)CC2CN(CCc3c([nH]c4ccccc34)C(C(=O)OC)(c3cc4c(cc3OC)N(C)C3C(O)(C(=O)OC)C(OC(C)=O)C5(CC)C=CCN6CCC43C65)C2)C1 (centres unmarked) [Compound 110],IC50,HCT116; Table 3,5.7 nM
same,IC50,L1210; Table 3,5.9 nM
CCC1(NC(=O)c2cncs2)CC2CN(CCc3c([nH]c4ccccc34)C(C(=O)OC)(c3cc4c(cc3OC)N(C)C3C(O)(C(=O)OC)C(OC(C)=O)C5(CC)C=CCN6CCC43C65)C2)C1 (centres unmarked) [Compound 140],IC50,HCT116; Table 5,0.6 nM
same,IC50,L1210; Table 5,1.8 nM
CCC1(NC(=O)c2ccc(SC(C)C)cc2)CC2CN(CCc3c([nH]c4ccccc34)C(C(=O)OC)(c3cc4c(cc3OC)N(C)C3C(O)(C(=O)OC)C(OC(C)=O)C5(CC)C=CCN6CCC43C65)C2)C1 (centres unmarked) [Compound 87],IC50,HCT116; Table 2,4.6 nM
same,IC50,L1210; Table 2,4.3 nM
CC[C@]1(NC(=O)c2ccc(NC(=O)OC(C)(C)C)c(C)c2)C[C@H]2CN(CCc3c([nH]c4ccccc34)[C@@](C(=O)OC)(c3cc4c(cc3OC)N(C)[C@H]3[C@@](O)(C(=O)OC)[C@H](OC(C)=O)[C@]5(CC)C=CCN6CC[C@]43[C@@H]65)C2)C1 [Compound 105],IC50,HCT116; Table 2,5.8 nM
same,IC50,L1210; Table 2,5.6 nM
CC[C@]1(NC(=O)c2cc(C)cc(C)c2)C[C@H]2CN(CCc3c([nH]c4ccccc34)[C@@](C(=O)OC)(c3cc4c(cc3OC)N(C)[C@H]3[C@@](O)(C(=O)OC)[C@H](OC(C)=O)[C@]5(CC)C=CCN6CC[C@]43[C@@H]65)C2)C1 [Compound 29],IC50,HCT116; Table 2,6 nM
same,IC50,L1210; Table 2,5.4 nM
CCC1(NC(=O)c2ccc3occc3c2)CC2CN(CCc3c([nH]c4ccccc34)C(C(=O)OC)(c3cc4c(cc3OC)N(C)C3C(O)(C(=O)OC)C(OC(C)=O)C5(CC)C=CCN6CCC43C65)C2)C1 (centres unmarked) [Compound 158],IC50,HCT116; Table 6,3.8 nM
same,IC50,L1210; Table 6,5 nM
CCC1(NC(=O)c2cc(C)c(OC)c(C)c2)CC2CN(CCc3c([nH]c4ccccc34)C(C(=O)OC)(c3cc4c(cc3OC)N(C)C3C(O)(C(=O)OC)C(OC(C)=O)C5(CC)C=CCN6CCC43C65)C2)C1 (centres unmarked) [Compound 99],IC50,HCT116; Table 2,0.65 nM
same,potency relative to vinblastine (more potent),HCT116,10 fold
same,IC50,L1210; Table 2,0.5 nM
CC[C@]1(NC(=O)/C=C/c2ccsc2)C[C@H]2CN(CCc3c([nH]c4ccccc34)[C@@](C(=O)OC)(c3cc4c(cc3OC)N(C)[C@H]3[C@@](O)(C(=O)OC)[C@H](OC(C)=O)[C@]5(CC)C=CCN6CC[C@]43[C@@H]65)C2)C1 [Compound 114],IC50,HCT116; Table 3,0.6 nM
same,IC50,L1210; Table 3,0.5 nM
CCC1(NC(=O)c2ccc3sccc3c2)CC2CN(CCc3c([nH]c4ccccc34)C(C(=O)OC)(c3cc4c(cc3OC)N(C)C3C(O)(C(=O)OC)C(OC(C)=O)C5(CC)C=CCN6CCC43C65)C2)C1 (centres unmarked) [Compound 163],IC50,HCT116; Table 6,4.9 nM
same,IC50,L1210; Table 6,4.2 nM
CC[C@]1(NC(=O)c2cc3ccccc3o2)C[C@H]2CN(CCc3c([nH]c4ccccc34)[C@@](C(=O)OC)(c3cc4c(cc3OC)N(C)[C@H]3[C@@](O)(C(=O)OC)[C@H](OC(C)=O)[C@]5(CC)C=CCN6CC[C@]43[C@@H]65)C2)C1 [Compound 160],IC50,HCT116; Table 6,1.1 nM
same,IC50,L1210; Table 6,1.8 nM
CC[C@]1(NC(=O)c2ccc(N(C)C(=O)OC(C)(C)C)cc2)C[C@H]2CN(CCc3c([nH]c4ccccc34)[C@@](C(=O)OC)(c3cc4c(cc3OC)N(C)[C@H]3[C@@](O)(C(=O)OC)[C@H](OC(C)=O)[C@]5(CC)C=CCN6CC[C@]43[C@@H]65)C2)C1 [Compound 63],IC50,HCT116; Table 2,3.9 nM
same,IC50,L1210; Table 2,4.1 nM
CC[C@]1(NC(=O)c2ccc3ncsc3c2)C[C@H]2CN(CCc3c([nH]c4ccccc34)[C@@](C(=O)OC)(c3cc4c(cc3OC)N(C)[C@H]3[C@@](O)(C(=O)OC)[C@H](OC(C)=O)[C@]5(CC)C=CCN6CC[C@]43[C@@H]65)C2)C1 [Compound 170],IC50,HCT116; Table 6,0.6 nM
same,IC50,L1210; Table 6,0.5 nM
CC[C@]1(NC(=O)c2ccc(NC)cc2)C[C@H]2CN(CCc3c([nH]c4ccccc34)[C@@](C(=O)OC)(c3cc4c(cc3OC)N(C)[C@H]3[C@@](O)(C(=O)OC)[C@H](OC(C)=O)[C@]5(CC)C=CCN6CC[C@]43[C@@H]65)C2)C1 [Compound 62],IC50,HCT116; Table 2,0.33 nM
same,IC50,L1210; Table 2,0.38 nM
CCC(C)c1ccc(C(=O)N[C@@]2(CC)C[C@H]3CN(CCc4c([nH]c5ccccc45)[C@@](C(=O)OC)(c4cc5c(cc4OC)N(C)[C@H]4[C@@](O)(C(=O)OC)[C@H](OC(C)=O)[C@]6(CC)C=CCN7CC[C@]54[C@@H]76)C3)C2)cc1 (some centres unmarked) [Compound 37],IC50,HCT116; Table 2,15 nM
same,IC50,L1210; Table 2,25 nM
CCc1cc(CC)cc(C(=O)N[C@@]2(CC)C[C@H]3CN(CCc4c([nH]c5ccccc45)[C@@](C(=O)OC)(c4cc5c(cc4OC)N(C)[C@H]4[C@@](O)(C(=O)OC)[C@H](OC(C)=O)[C@]6(CC)C=CCN7CC[C@]54[C@@H]76)C3)C2)c1 [Compound 31],IC50,HCT116; Table 2,6.4 nM
same,IC50,L1210; Table 2,4.2 nM
CCC1(NC(=O)c2ccc(C)c(NC(C)=O)c2)CC2CN(CCc3c([nH]c4ccccc34)C(C(=O)OC)(c3cc4c(cc3OC)N(C)C3C(O)(C(=O)OC)C(OC(C)=O)C5(CC)C=CCN6CCC43C65)C2)C1 (centres unmarked) [Compound 103],IC50,HCT116; Table 2,4.3 nM
same,IC50,L1210; Table 2,5.4 nM
CCOc1ccc(C(=O)NC2(CC)CC3CN(CCc4c([nH]c5ccccc45)C(C(=O)OC)(c4cc5c(cc4OC)N(C)C4C(O)(C(=O)OC)C(OC(C)=O)C6(CC)C=CCN7CCC54C76)C3)C2)cc1 (centres unmarked) [Compound 72],IC50,HCT116; Table 2,0.6 nM
same,potency relative to vinblastine (more potent),HCT116,10 fold
same,IC50,L1210; Table 2,0.6 nM
CCC1(NC(=O)C=Cc2ccncc2)CC2CN(CCc3c([nH]c4ccccc34)C(C(=O)OC)(c3cc4c(cc3OC)N(C)C3C(O)(C(=O)OC)C(OC(C)=O)C5(CC)C=CCN6CCC43C65)C2)C1 (centres unmarked) [Compound 109],IC50,HCT116; Table 3,0.7 nM
same,IC50,L1210; Table 3,0.6 nM
CCC1(NC(=O)C2CC2)CC2CN(CCc3c([nH]c4ccccc34)C(C(=O)OC)(c3cc4c(cc3OC)N(C)C3C(O)(C(=O)OC)C(OC(C)=O)C5(CC)C=CCN6CCC43C65)C2)C1 (centres unmarked) [Compound 17],IC50,HCT116; Table 1,6.1 nM
same,IC50,L1210; Table 1,5.5 nM
CCc1ccc(C(=O)NC2(CC)CC3CN(CCc4c([nH]c5ccccc45)C(C(=O)OC)(c4cc5c(cc4OC)N(C)C4C(O)(C(=O)OC)C(OC(C)=O)C6(CC)C=CCN7CCC54C76)C3)C2)cc1 (centres unmarked) [Compound 30],IC50,HCT116; Table 2,0.7 nM
same,potency relative to vinblastine (more potent),HCT116,10 fold
same,IC50,L1210; Table 2,0.65 nM
CCC1(NC(=O)c2ccc3cnccc3c2)CC2CN(CCc3c([nH]c4ccccc34)C(C(=O)OC)(c3cc4c(cc3OC)N(C)C3C(O)(C(=O)OC)C(OC(C)=O)C5(CC)C=CCN6CCC43C65)C2)C1 (centres unmarked) [Compound 154],IC50,HCT116; Table 6,0.6 nM
same,IC50,L1210; Table 6,0.6 nM
CCC1(NC(=O)C2CCc3ccccc3C2)CC2CN(CCc3c([nH]c4ccccc34)C(C(=O)OC)(c3cc4c(cc3OC)N(C)C3C(O)(C(=O)OC)C(OC(C)=O)C5(CC)C=CCN6CCC43C65)C2)C1 (mixture of isomers) [Compound 122],IC50,HCT116; Table 4,580 nM
same,IC50,L1210; Table 4,420 nM
